Source: the NIST ThermoML archive (doi:10.1016/j.tca.2018.08.015)
Numbers after ± are expanded uncertainties.

Tests used:
[1] = for Glass transition temperature: DSC
[2] = molar heat capacity at constant pressure; details: 101.33 kPa, DSC
[3] = Molar enthalpy of transition or fusion; details: Crystal; DSC

c1ccc(-c2cccc(-c3ccccc3)c2)cc1 [m-terphenyl]
Details	Normal melting temperature [°C]	molar heat capacity at constant pressure [J/K/mol]
[1], Crystal, DTA	88 ± 0.5	–
[2], 212 K, Crystal	–	190.6 ± 9.5
[2], 212 K, Glass	–	193.8 ± 9.7
[2], 217 K, Glass	–	200 ± 10
[2], 222 K, Crystal	–	200.7 ± 10
[2], 222 K, Glass	–	206.2 ± 10
[2], 227 K, Glass	–	212.4 ± 11
[2], 232 K, Crystal	–	210.8 ± 10
[2], 232 K, Glass	–	218.6 ± 11
[2], 237 K, Glass	–	224.8 ± 11
[2], 242 K, Crystal	–	220.8 ± 11
[2], 252 K, Crystal	–	230.9 ± 12
[2], 262 K, Crystal	–	241 ± 12
[2], 272 K, Crystal	–	251.1 ± 13
[2], 280 K, Liquid	–	364.8 ± 18
[2], 282 K, Crystal	–	261.2 ± 13
[2], 290 K, Liquid	–	370.5 ± 18
[2], 292 K, Crystal	–	271.2 ± 14
[2], 300 K, Liquid	–	376.3 ± 19
[2], 302 K, Crystal	–	281.3 ± 14
[2], 310 K, Liquid	–	382.1 ± 19
[2], 312 K, Crystal	–	291.4 ± 15
[2], 318 K, Crystal	–	299.5 ± 15
[2], 320 K, Liquid	–	387.8 ± 19
[2], 322 K, Crystal	–	301.5 ± 15
[2], 323 K, Crystal	–	304.2 ± 15
[2], 328 K, Crystal	–	308.9 ± 15
[2], 330 K, Crystal	–	309.5 ± 16
[2], 330 K, Liquid	–	393.6 ± 20
[2], 333 K, Crystal	–	313.5 ± 16
[2], 338 K, Crystal	–	318.2 ± 16
[2], 340 K, Liquid	–	399.3 ± 20
[2], 343 K, Crystal	–	322.9 ± 16
[2], 348 K, Crystal	–	327.5 ± 16
[2], 350 K, Liquid	–	405.1 ± 20
[2], 360 K, Liquid	–	410.9 ± 20
[2], 370 K, Liquid	–	416.6 ± 21
[2], 378 K, Liquid	–	421.2 ± 21

Details	Glass transition temperature [°C]	Molar enthalpy of transition or fusion [kcal/mol]
[1]	-17 ± 1	–
[3]	–	5.69 ± 0.141

c1ccc(-c2ccccc2-c2ccccc2)cc1 [o-terphenyl]
Details	Glass transition temperature [°C]
[1]	-3 ± 1

[2]
Details	molar heat capacity at constant pressure [J/K/mol]
212 K, Glass	181.5 ± 9.1
217 K, Glass	187.8 ± 9.4
222 K, Glass	194 ± 9.7
227 K, Glass	200.3 ± 10
232 K, Glass	206.5 ± 10
237 K, Glass	212.8 ± 11
242 K, Glass	219 ± 11
280 K, Liquid	356.2 ± 18
290 K, Liquid	363.1 ± 18
300 K, Liquid	370 ± 18
310 K, Liquid	376.9 ± 19
320 K, Liquid	383.8 ± 19
330 K, Liquid	390.7 ± 20
340 K, Liquid	397.6 ± 20
350 K, Liquid	404.4 ± 20
